Experimental data from article PMC6271323, “Preparation of Rotenone Derivatives and in Vitro Analysis of Their Antimalarial, Antileishmanial and Selective Cytotoxic Activities” (Molecules, 2014).
Like-named read-outs stand apart in the source and are kept apart here.

Columns and labels:
[1] = tested on: Plasmodium falciparum (chloroquine sensitive 3D7 strain); experiment: microbe, parasite or virus in culture; format: cell-based; conditions: for Index of Selectivity huRBC: IS = LC50 in huRBC/EC50 in P. falciparum; for EC50: read-out: Biological activity CE50 Antiplasmodial
Protocol: The effect of compounds on the growth of the parasites was assessed by quantification of the parasite DNA stained with ethidium bromide (EtBr). Briefly, unsynchronized cultures of P. falciparum were adjusted to a 1.5%–2% parasitemia and 5% hematocrit in RPMI medium supplemented with 10% human serum. Then, 500 µL of parasites and 500 µL of each concentration of compound were placed in each well of 24-well plates. Plates were incubated for 72 h at 37 °C in a N2 (90%), CO2 (5%) and O2 (5%) atmosphere. […] After 72 h of exposure, DNA from parasites was extracted and purified using a lysis solution containing proteinase K. Each compound and each concentration were assessed in triplicate in at least two separate experiments.
Results are expressed as the median effective concentration (EC50) calculated by probit analysis using the % of inhibition: % parasite growth = (FAU Exposed parasites)/(FAU unexposed parasites) × 100(2)
(§1) The index of selectivity was calculated with the equation: IS = LC50/EC50.

[2] = in vitro; conditions: human
Protocol: Primary cultures of human monocyte-derived macrophages (huMDMs) and human red blood cells (huRBCs) obtained from healthy donors after signing the informed consent were also used. The huMDM were obtained from peripheral mononuclear cells isolated by Ficoll-Hypaque 1077 gradient centrifugation. huMDMs were suspended at 3 × 10^5 cells/mL in RPMI 1640 medium supplemented with 10% autologous serum. One mL of suspension was dispensed into each well of 24-well chamber slides and incubated at 37 °C, 5% of CO2 for 72 h, according to a previously described methodology. On the other hand, huRBCs were obtained from sodium citrate anticoagulated whole blood. After centrifugation at 1,500 rpm for 10 min, the RBCs were recovered and suspended in RPMI 1640 medium at 50% hematocrit and stored at 4 °C until use.
(§2) Cytotoxic activity of rotenone and it derivatives on U-937, Vero, HepG2, […] and huMDM cells was evaluated in vitro using the MTT (3-(4,5-dimethylthiazol-2-yl)-2,5-diphenyltetrazolium bromide assay) as described previously. Cells were adjusted to 1 × 10^5 U-937 cells/mL, 2.5 × 10^5 Vero, HepG2 or CAD-R1 cells/mL and 5 × 10^5 huMDM cells/mL in RPMI 1640 supplemented with 10% SBF and the corresponding concentration of each compound. Six serial-based four-dilution concentrations from 200 to 0.19 μg/mL were tested. The amount of formazan produced by the viable cells was registered as optical densities (OD) obtained in an ELISA reader (Bio-Rad) at 570 nm. […] Additionally, hemolytic activity on huRBCs was assessed by the osmotic lysis method. In brief, O positive (O+) huRBCs were adjusted at 3% hematocrit saline solution and incubated in the presence of each compound (six serial four-fold dilutions from 200 to 0.19 µg/mL) at 37 °C. After 2 h, hemoglobin concentration in the supernatant was measured according to the OD obtained in an ELISA reader plate (Bio-Rad) at 570 nm. Cells exposed to saline solution with Triton X-100 were used as positive (lyses) controls, while unexposed cells were used as negative (viability) controls. Each compound and each concentration were assessed in triplicate in at least two separate experiments.
(§3) The percentage of viability (%V) was calculated using Equation 1, where the optical density (OD) of unexposed cells (negative control) corresponds to 100% of viability. In turn, mortality percentage corresponds to 100%–% viability: % Viability = (OD Exposed cells)/(OD Control cells) × 100(1)

[3] = in vitro
Source text: U937 cells (CRL-1593^TM) were isolated from human histiocytic lymphoma; Vero cells (CCL-81^TM) were derived from the kidney of the African green monkey, Cercopithecus aethiops; HepG2 (HB-8065^TM) cells were derived from human liver tissue, and CAD-R1 cells, a subclone, were derived from mouse neuronal cells. All cell lines were from American Type Culture Collection (Manassas, VA, USA), except CAD-R1 cells that were kindly donated by D. Chikaraishi and J. Wang (Department of Neurobiology, Duke University Medical Center, Durham, NC, USA). All cell lines were cultured in standard conditions at 37 °C, 5% CO2. U-937 cells were cultivated in RPMI 1640 medium supplemented with 10% fetal bovine serum (FBS) and antibiotics (penicillin 100 U/mL and streptomycin 0.1 mg/mL). Vero, HepG2 and CAD-R1 were cultivated in DMEM medium supplemented with 5% FBS and antibiotics.
as §2, §3

[4] = tested on: intracellular amastigotes of Leishmania panamensis; experiment: Leishmanicidal activity on intracellular amastigotes, flow cytometry (GFP); format: cell-based; conditions: for Index of Selectivity huMDM: IS = LC50 in huMDM/EC50 for L. panamensis; for EC50: Leishmania panamensis, read-out: Biological activity CE50 Leishmanicidal
Protocol: The leishmanicidal activity was tested on intracellular amastigotes of Leishmania panamensis by flow cytometry following the methodology previously described. Previously, huMDM were infected with promastigotes of L. panamensis transfected with the green fluorescent protein gene (MHOM/CO/87/UA140pIR-GFP) in a proportion of 35:1 (parasites:cells). Plates were incubated at 34 °C, 5% CO2, and after 3 h, cells were washed twice with phosphate buffer (PBS) and incubated again. After 24 h, the infected cells were exposed for 72 h to each concentration of the compounds. Cells were removed using trypsin/EDTA solution and washed twice with PBS by centrifuging 10 min at 1,100 rpm, 4 °C. Then, cells were analyzed in a flow cytometer (Cytomics FC 500MPL, Brea, CA, USA) by reading at 488-nm excitation, 525-nm emissions over an argon laser and counting 10,000 events. The percentage of infected cells was determined by dot plot analysis, while the parasitic load was calculated by the mean fluorescence intensity using histogram analysis. In parallel, cells incubated in medium alone were used as the controls of infection (negative control), and cells exposed to amphotericin B were used as controls of leishmanicidal activity (positive control). Each concentration was assessed in triplicate in at least two independent experiments.
Antileishmanial activity was determined according to the reduction of infected cells and their parasite load obtained for each experimental condition according to the fluorescence median intensity (FMI) emitted by the cytometer and using Equation 3, where the % of parasitemia in unexposed cells corresponds to 100% parasitemia. […] Results are expressed as the median effective concentration (EC50) calculated by probit analysis using the % of inhibition of infection: % parasitemia = (FMI Exposed cells)/(FMI unexposed cells) × 100(3)
as §1

[5] = Plasmodium falciparum, 3D7, 72 h, total forms of P. falciparum 3D7, unsynchronized culture, 72 h, ± SD, n = 6 replicates
[6] = total forms of P. falciparum 3D7, unsynchronized culture, 72 h, ± SD, n = 6 replicates
[7] = African green monkey (Cercopithecus aethiops)
[8] = L. panamensis intracellular amastigotes in huMDM, 72 h exposure, ± SD, n = 6 replicates

With `C=C(C)[C@H]1Cc2c(ccc3c2O[C@@H]2COc4cc(OC)c(OC)cc4[C@@H]2C3O)O1` (stereo partly drawn) [Compound 3, 2R,6aR,12aS-8,9-Dimethoxy-2-(prop-1-en-2-yl)-1,2,6,6a,12,12a-hexahydrochromeno[3,4-b]furo[2,3-h]chromen-6-ol] the “Index of Selectivity huRBC” value [1] was greater than 9.6, the EC50 [1, 5] was less than 50 µM and the EC50 [1, 6] was 53.9 ± 2.4 µM. For the same molecule, the CC50 [2] was greater than 523 µM, the CC50 [3, 7] was 284 ± 23.6 µM and the CC50 ([3]; mouse) was 17 ± 3.4 µM. The “Index of Selectivity huMDM” value [4] was less than 3.9 and the EC50 [4, 8] was greater than 130 µM.

Molecule `CCN(CC)CCCC(C)Nc1ccnc2cc(Cl)ccc12` (stereo not drawn) [Chloroquine, reference compound] has an EC50 [1, 5] of 0.06 ± 0.03 µM.

In the case of `COc1cc2c(cc1OC)C1Cc3ccc4c(c3O[C@@H]1CO2)C[C@H](C(C)C)O4` (stereo partly drawn) [Compound 7, 2R,6aS,12aS-2-Isopropyl-8,9-dimethoxy-1,2,6,6a,12,12a-hexahydrochromeno-[3,4-b]furo[2,3-h]-chromene], the “Index of Selectivity huRBC” value [1] is reported as 8.7, the EC50 [1, 5] is reported as less than 50 µM and the EC50 [1, 6] is reported as 47.4 ± 0.2 µM. The CC50 [2] was greater than 476 µM, the CC50 [3, 7] was greater than 476 µM and the CC50 ([3]; mouse) was 1.67 ± 0.9 µM. For the same molecule, the “Index of Selectivity huMDM” value [4] was less than 4.0 and the EC50 [4, 8] was greater than 119 µM.

In the case of `COc1cc2c(cc1OC)[C@@H]1C(=O)c3ccc4c(c3O[C@@H]1CO2)C[C@H](C1(C)CO1)O4` (stereo partly drawn) [Compound 2, 6aS,12aS-8,9-Dimethoxy-2-(2-methyloxiran-2-yl)-1,2,12,12a-tetrahydrochromeno[3,4-b]furo[2,3-h]-chromen-6(6aH)-one], the “Index of Selectivity huRBC” value [1] is reported as greater than 12.1, the EC50 [1, 5] is reported as less than 50 µM and the EC50 [1, 6] is reported as 41.7 ± 12.6 µM. The CC50 [2] was greater than 505 µM, the CC50 [3, 7] was 81.3 ± 16.9 µM and the CC50 ([3]; mouse) was 29 ± 3 µM. For the same molecule, the “Index of Selectivity huMDM” value [4] was less than 3.6 and the EC50 [4, 8] was greater than 126 µM.

In the case of `C[C@@H]1[C@H](O)[C@@H](C)/C=C/C=C/C=C/C=C/C=C/C=C/C=C/[C@H](O[C@@H]2O[C@H](C)[C@@H](O)[C@H](N)[C@@H]2O)C[C@@H]2O[C@](O)(C[C@@H](O)C[C@@H](O)[C@H](O)CC[C@@H](O)C[C@@H](O)CC(=O)O[C@H]1C)C[C@H](O)[C@H]2C(=O)O` [Amphotericin B, reference compound], the CC50 [3, 7] is reported as 15.6 ± 0.4 µM, the CC50 ([3]; mouse) is reported as 54.5 ± 0.3 µM and the “Index of Selectivity huMDM” value [4] is reported as 143.0. For the same molecule, the EC50 [4, 8] was 0.8 ± 0.2 µM.

Work on `COc1cccc2c1C(=O)c1c(O)c3c(c(O)c1C2=O)C[C@@](O)(C(=O)CO)C[C@@H]3O[C@H]1C[C@H](N)[C@H](O)[C@H](C)O1` [Doxorubicin, reference compound] yielded a CC50 [3, 7] of 9.36 ± 2.2 µM and a CC50 ([3]; mouse) of 2.6 ± 0.7 µM.

In the case of `C=C(C)[C@H]1Cc2c(ccc3c2O[C@@H]2COc4cc(OC)c(OC)cc4[C@@H]2C3=O)O1` [Compound 1, rotenone], the “Index of Selectivity huRBC” value ([1]; listed as 1 (Rotenone)) is reported as greater than 26.1, the EC50 ([1]; Plasmodium falciparum, 3D7, 72 h) is reported as 19 ± 8.6 µM and the CC50 at 2 h [2] is reported as greater than 508 µM. The CC50 [3, 7] was greater than 508 µM, the CC50 ([3]; mouse) was 10.2 µM and the “Index of Selectivity huMDM” value [4] was 3.1. For the same molecule, the EC50 ([4]; 72 h) was 127 ± 17.3 µM and the “activity against intracellular amastigotes (in words)” value ([4]; antileishmanial activity, L. panamensis) was “inactive”.
